Measured values reported in the supplement of paper PMC10307832.

Assays:
Assay in all cases: relative viability (nuclei count vs DMSO), 5 days (fraction); higher = more cells survive
EKVX = test system: EKVX
Outline: (§1)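 Each reported value is a median over duplicate plates. It expresses relative viability: treated-well nuclei count divided by vehicle-well nuclei count. Lung cancer cell lines in 1536-well plates were dosed by pin tool a day after seeding, alone with one drug or with a fixed anchor-drug dose plus five library-drug doses (not always all listed) in √10 steps, and nuclei were counted after 5 days.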

EPLC-272H = test system: EPLC-272H
Outline: as §1

H3255 = test system: H3255
Outline: as §1

HCC-827 = test system: HCC-827
Outline: as §1

HOP-62 = test system: HOP-62
Outline: as §1

LCLC-97TM1 = test system: LCLC-97TM1
Outline: as §1

LK-2 = test system: LK-2
Outline: as §1

LU99A = test system: LU99A
Outline: as §1

LXF-289 = test system: LXF-289
Outline: as §1

NCI-H1355 = test system: NCI-H1355
Outline: as §1

NCI-H1650 = test system: NCI-H1650
Outline: as §1

NCI-H1993 = test system: NCI-H1993
Outline: as §1

NCI-H2170 = test system: NCI-H2170
Outline: as §1

NCI-H2228 = test system: NCI-H2228
Outline: as §1

NCI-H2405 = test system: NCI-H2405
Outline: as §1

NCI-H3122 = test system: NCI-H3122
Outline: as §1

PC-3 [JPC-3] = test system: PC-3 [JPC-3]
Outline: as §1

SK-LU-1 = test system: SK-LU-1
Outline: as §1

SW 1573 = test system: SW 1573
Outline: as §1

UMC-11 = test system: UMC-11
Outline: as §1

## CCNC(=O)c1noc(-c2cc(C(C)C)c(O)cc2O)c1-c1ccc(CN2CCOCC2)cc1 [Luminespib] + CS(=O)(=O)CCNCc1ccc(-c2ccc3ncnc(Nc4ccc(OCc5cccc(F)c5)c(Cl)c4)c3c2)o1 [Lapatinib] (partner 2 µM)
EKVX; first compound 0.002 µM
  relative viability: 0.183
EKVX; first compound 0.006325 µM
  relative viability: 0.228
EKVX; first compound 0.02 µM
  relative viability: 0.175
EKVX; first compound 0.06325 µM
  relative viability: 0.158
EKVX; first compound 0.2 µM
  relative viability: 0.0973
EPLC-272H; first compound 0.006325 µM
  relative viability: 0.861
EPLC-272H; first compound 0.02 µM
  relative viability: 0.563
EPLC-272H; first compound 0.06325 µM
  relative viability: 0.725
EPLC-272H; first compound 0.2 µM
  relative viability: 0.153
H3255; first compound 0.002 µM
  relative viability: 0.245
H3255; first compound 0.006325 µM
  relative viability: 0.305
H3255; first compound 0.02 µM
  relative viability: 0.234
H3255; first compound 0.06325 µM
  relative viability: 0.233
H3255; first compound 0.2 µM
  relative viability: 0.25
HCC-827; first compound 0.002 µM
  relative viability: 0.184
HCC-827; first compound 0.006325 µM
  relative viability: 0.184
HCC-827; first compound 0.02 µM
  relative viability: 0.172
HCC-827; first compound 0.06325 µM
  relative viability: 0.235
HCC-827; first compound 0.2 µM
  relative viability: 0.185
HOP-62; first compound 0.002 µM
  relative viability: 1.13
HOP-62; first compound 0.006325 µM
  relative viability: 1.08
HOP-62; first compound 0.02 µM
  relative viability: 0.695
HOP-62; first compound 0.06325 µM
  relative viability: 0.762
HOP-62; first compound 0.2 µM
  relative viability: 0.0994
LCLC-97TM1; first compound 0.002 µM
  relative viability: 1.33
LCLC-97TM1; first compound 0.006325 µM
  relative viability: 0.759
LCLC-97TM1; first compound 0.02 µM
  relative viability: 0.318
LCLC-97TM1; first compound 0.06325 µM
  relative viability: 0.197
LCLC-97TM1; first compound 0.2 µM
  relative viability: 0.139
LK-2; first compound 0.002 µM
  relative viability: 0.849
LK-2; first compound 0.006325 µM
  relative viability: 0.941
LK-2; first compound 0.02 µM
  relative viability: 0.545
LK-2; first compound 0.06325 µM
  relative viability: 0.252
LK-2; first compound 0.2 µM
  relative viability: 0.204
LU99A; first compound 0.002 µM
  relative viability: 1.11
LU99A; first compound 0.006325 µM
  relative viability: 0.939
LU99A; first compound 0.02 µM
  relative viability: 0.518
LU99A; first compound 0.06325 µM
  relative viability: 0.127
LU99A; first compound 0.2 µM
  relative viability: 0.11
LXF-289; first compound 0.002 µM
  relative viability: 0.905
LXF-289; first compound 0.006325 µM
  relative viability: 0.877
LXF-289; first compound 0.02 µM
  relative viability: 1.02
LXF-289; first compound 0.06325 µM
  relative viability: 0.554
LXF-289; first compound 0.2 µM
  relative viability: 0.115
NCI-H1355; first compound 0.002 µM
  relative viability: 0.891
NCI-H1355; first compound 0.006325 µM
  relative viability: 1.02
NCI-H1355; first compound 0.02 µM
  relative viability: 0.461
NCI-H1355; first compound 0.06325 µM
  relative viability: 0.664
NCI-H1355; first compound 0.2 µM
  relative viability: 0.153
NCI-H1650; first compound 0.002 µM
  relative viability: 0.761
NCI-H1650; first compound 0.006325 µM
  relative viability: 0.642
NCI-H1650; first compound 0.02 µM
  relative viability: 0.177
NCI-H1650; first compound 0.06325 µM
  relative viability: 0.145
NCI-H1650; first compound 0.2 µM
  relative viability: 0.176
NCI-H1993; first compound 0.002 µM
  relative viability: 0.874
NCI-H1993; first compound 0.006325 µM
  relative viability: 0.864
NCI-H1993; first compound 0.02 µM
  relative viability: 0.654
NCI-H1993; first compound 0.06325 µM
  relative viability: 0.491
NCI-H1993; first compound 0.2 µM
  relative viability: 0.418
NCI-H2170; first compound 0.002 µM
  relative viability: 0.254
NCI-H2170; first compound 0.006325 µM
  relative viability: 0.28
NCI-H2170; first compound 0.02 µM
  relative viability: 0.248
NCI-H2170; first compound 0.06325 µM
  relative viability: 0.291
NCI-H2170; first compound 0.2 µM
  relative viability: 0.203
NCI-H2228; first compound 0.002 µM
  relative viability: 1.2
NCI-H2228; first compound 0.006325 µM
  relative viability: 0.808
NCI-H2228; first compound 0.02 µM
  relative viability: 0.191
NCI-H2228; first compound 0.06325 µM
  relative viability: 0.126
NCI-H2228; first compound 0.2 µM
  relative viability: 0.117
NCI-H2405; first compound 0.002 µM
  relative viability: 1.17
NCI-H2405; first compound 0.006325 µM
  relative viability: 0.876
NCI-H2405; first compound 0.02 µM
  relative viability: 0.869
NCI-H2405; first compound 0.06325 µM
  relative viability: 0.144
NCI-H2405; first compound 0.2 µM
  relative viability: 0.125
NCI-H3122; first compound 0.002 µM
  relative viability: 1.09
NCI-H3122; first compound 0.006325 µM
  relative viability: 0.951
NCI-H3122; first compound 0.02 µM
  relative viability: 1.02
NCI-H3122; first compound 0.06325 µM
  relative viability: 0.24
NCI-H3122; first compound 0.2 µM
  relative viability: 0.168
PC-3 [JPC-3]; first compound 0.002 µM
  relative viability: 0.486
PC-3 [JPC-3]; first compound 0.006325 µM
  relative viability: 0.471
PC-3 [JPC-3]; first compound 0.02 µM
  relative viability: 0.404
PC-3 [JPC-3]; first compound 0.06325 µM
  relative viability: 0.488
PC-3 [JPC-3]; first compound 0.2 µM
  relative viability: 0.338
SK-LU-1; first compound 0.002 µM
  relative viability: 0.905
SK-LU-1; first compound 0.006325 µM
  relative viability: 0.469
SK-LU-1; first compound 0.02 µM
  relative viability: 0.424
SK-LU-1; first compound 0.06325 µM
  relative viability: 0.164
SK-LU-1; first compound 0.2 µM
  relative viability: 0.133
SW 1573; first compound 0.002 µM
  relative viability: 1.2
SW 1573; first compound 0.006325 µM
  relative viability: 1.14
SW 1573; first compound 0.02 µM
  relative viability: 0.711
SW 1573; first compound 0.06325 µM
  relative viability: 0.439
SW 1573; first compound 0.2 µM
  relative viability: 0.127
UMC-11; first compound 0.002 µM
  relative viability: 0.85
UMC-11; first compound 0.006325 µM
  relative viability: 0.834
UMC-11; first compound 0.02 µM
  relative viability: 0.395
UMC-11; first compound 0.06325 µM
  relative viability: 0.345
UMC-11; first compound 0.2 µM
  relative viability: 0.125
